Assays:
Format in all cases: in vivo, human
[1] = tested on: patients with symptomatic, moderate-to-severe COPD; assay: Pooled analysis of two phase 3 trials (Example 2): moderate/severe exacerbation rate and time to first exacerbation
[2] = tested on: patients with moderate to severe COPD; assay: Phase 3 clinical study (Example 1): safety assessment, risk of pneumonia; settings: patients with blood eosinophil count <300 cells/μL
Description: (§1) A clinical study was conducted to determine the efficacy of ensifentrine in treating COPD compared with placebo. Ensifentrine was administered by nebuliser at a dose of 3 mg twice daily (BID) for 24 weeks. The study was a multi-centre, randomized, double-blind, parallel-group, placebo-controlled trial with around 800 patients and 5:3 randomization.
(§2) The study population included patients aged 40-80 years with moderate to severe COPD (FEV1 30%-70% p.n., FEV1/forced vital capacity (FVC) ratio <0.7, with mMRC≥2). The randomization stratified (a) the use of stable background maintenance LAMA or LABA therapy use (approx. 50%. yes or no) and (b) cigarette smoking (current or former). Inhaled corticosteroid (ICS) maintenance therapy was permitted in up to 20% of patients under certain provisions.

[3] = tested on: patients with moderate to severe COPD; assay: Phase 3 clinical study (Example 1): lung function, average FEV1 AUC0-12h
Description: as §1, §2
(§3) The primary endpoint of the study was change from baseline in average FEV1 area under the curve (AUC)0-12 h post-dose at week 12. Secondary endpoints of the study included: frequency of moderate/severe COPD exacerbations over 24 Weeks; time to first moderate/severe COPD exacerbation; and effect of blood eosinophil count of patients.
Baseline FEV1 is the mean of the two measurements taken before study medication on the day of first dosing, i.e. <40 minutes and just prior to dosing, both pre-dose on day 1.
Average FEV1 AUC0-12 h is defined as area under the curve over 12 hours of the FEV1, divided by 12 hours.
(§4) The investigational product and placebo were provided in 2.5 mL unit dose format in an ampule and administered via a nebuliser.

[4] = tested on: patients with moderate to severe COPD; assay: Phase 3 clinical study (Example 1): moderate/severe COPD exacerbations, by blood eosinophil count
Description: as §1, §2, §3
Exacerbations were defined as worsening of 2 or more major symptoms (dyspnea, sputum volume, and sputum purulence) or worsening of any 1 major symptom together with any 1 of the following minor symptoms: sore throat, colds, fever without other cause, and increased cough or wheeze for at least 2 consecutive days. COPD exacerbations were considered to be of moderate severity if treatment with systemic corticosteroids and/or antibiotics was required and were considered to be severe if hospitalization was required.
The blood eosinophil count of patients was determined as follows. • A blood sample (2 mL) was collected in 2 mL EDTA tube and mixed immediately using gentle inversion 8-10 times. • Eosinophils were tested as part of the Complete Blood Count (CBC) test panel and are part of the White Blood Cell (WBC) differential. • Testing was performed on the Beckman Coulter DxH 800, with testing performed daily on ambient samples. • The haematology parameters that constitute the CBC panel were produced using methods and technologies within the DxH800, including Coulter principle and VCSn laser flow cell technology. • The WBC differential was obtained using VCSn technology (Volume, Conductivity and Scatter) based on simultaneous measuring of cell volume, high frequency conductivity and laser light scatter. This produced an automated WBC differential. • During analysis, if any parameter was abnormal or outside established limits the instrument flagged this as abnormal and produced a stained blood slide. • Blood film review was completed using manual microscopy and a technician confirmed any abnormal findings. • The technician could have also provided a manual WBC differential during blood film review or confirm the automated WBC differential. • Finalised results were then provided.
as §4

[5] = Blood eosinophils < 100 cells/μL (n = 10)
[6] = Blood eosinophils ≥ 100 cells/μL (n = 74)
[7] = Blood eosinophils > 150 cells/μL (n = 445)
[8] = Blood eosinophils ≤ 150 cells/μL (n = 343)

COc1cc2c(cc1OC)-c1c/c(=N\c3c(C)cc(C)cc3C)n(CCNC(N)=O)c(=O)n1CC2 [Ensifentrine, N-(2-{(2E)-9,10-dimethoxy-4-oxo-2-[(2,4,6-trimethylphenyl)imino]-6,7-dihydro-2H-pyrimido[6,1-a]isoquinolin-3(4H)-yl}ethyl)urea]
Hazard Ratio (95% Confidence Interval), time to first moderate/severe exacerbation [1, 5]: 0.52 (0.22, 1.24) | Rate Ratio (95% Confidence Interval), moderate/severe exacerbation [1, 5]: 0.50 (0.22, 1.17) | Hazard Ratio (95% Confidence Interval), time to first moderate/severe exacerbation ([1]; Blood eosinophils < 300 cells/μL (n = 60)): 0.53 (0.37, 0.76) | Rate Ratio (95% Confidence Interval), moderate/severe exacerbation ([1]; Blood eosinophils < 300 cells/μL (n = 65)): 0.53 (0.37, 0.75) | Hazard Ratio (95% Confidence Interval), time to first moderate/severe exacerbation [1, 6]: 0.60 (0.43, 0.83) | Rate Ratio (95% Confidence Interval), moderate/severe exacerbation [1, 6]: 0.60 (0.43, 0.84) | Hazard Ratio (95% Confidence Interval), time to first moderate/severe exacerbation ([1]; Blood eosinophils ≥ 300 cells/μL (n = 24)): 0.79 (0.43, 1.45) | Rate Ratio (95% Confidence Interval), moderate/severe exacerbation ([1]; Blood eosinophils ≥ 300 cells/μL (n = 29)): 0.82 (0.45, 1.51) | reduction in exacerbation rate ([1]; blood eosinophil counts <100 cells/μL): about 50% | reduction in exacerbation rate ([1]; blood eosinophil counts ≤300 cells/μL): about 47% | number needed to treat (NNT) for the prevention of 1 exacerbation annually ([1]; pooled population): 6.25 patients | reduction in the moderate/severe exacerbation rate compared with placebo ([1]; pooled population, 3 mg BID over 24 weeks): 41% | reduction in risk (Cox proportional hazards model), time to first moderate/severe exacerbation ([1]; pooled population, 24 weeks): 41% | rate ratio, moderate/severe exacerbation rate ([1]; pooled population, 24 weeks, 95% CI 0.43-0.80): 0.59 | hazard ratio, time to first moderate/severe exacerbation ([1]; pooled population, 24 weeks, 95% CI 0.44-0.81): 0.59 | time to first moderate/severe exacerbation compared with placebo ([1]; pooled population, over 24 weeks, log rank test P=0.001): significantly delayed | transition from lower to higher exacerbation risk (group B to group E) compared with placebo ([1]; post hoc analysis, 24 weeks): numerically delayed | risk of pneumonia [2]: no significant increase | Average FEV1 (AUC)0-12 h post-dose at Week 12: Change from Baseline, CFB Least Squares Mean (95% CI) ([3]; 3 mg BID by nebuliser, week 12, n = 498): 48.2 (30.0, 66.5) mL | Average FEV1 (AUC)0-12 h post-dose at Week 12: Placebo-corrected CFB LS Mean Diff (95% CI) ([3]; 3 mg BID by nebuliser, week 12, vs placebo): 93.9 (64.5, 123.3) mL | improvement in lung function ([3]; all subgroups, 3 mg BID): statistically significant | Exacerbation Rate Reduction [4, 7]: 43% | Rate Ratio (95% Confidence Interval), COPD exacerbations [4, 7]: 0.57 (0.34, 0.97) | Exacerbation Rate Reduction [4, 8]: 42% | Rate Ratio (95% Confidence Interval), COPD exacerbations [4, 8]: 0.58 (0.30, 1.14) | reduction in relative risk of moderate or severe COPD exacerbation vs placebo ([4]; all patients, 3 mg BID, 24 weeks): approximately 40% | reduction in relative risk of moderate or severe COPD exacerbation vs placebo ([4]; subgroup blood eosinophil count <150 cells/μL): around 40% | reduction in relative risk of moderate or severe COPD exacerbation vs placebo ([4]; subgroup blood eosinophil count <300 cells/μL): around 50%

From US20250073240A1, “NEW TREATMENT” (Verona Pharma PLC, priority 2023, published 2025)
